In one assay the test system is HEK293. The assay is described as follows: cells. Format: functional, Homo sapiens, ATCC CRL1573. The note with it: Homo sapiens, ATCC CRL1573, HEK293; ASSAY_TEST Inhibition of Cell Viability; detection method Resazurin; Fluorescence (ex560/em590); MEDIA DMEM with 10% FBS; plate type 384well; TC; CORNING #3712; time 18 hr; read-out: CC50. On the technique in general: The colour change of resazurin is a common sign of viable cells or microbes.

For another assay, the system named is Staphylococcus aureus. Kind of assay: microbe, parasite or virus in culture. The note with it: ATCC 43300, 18 h, ASSAY_TEST Inhibition of Bacterial Growth, detection method Absorption (OD600), MEDIA CAMHB, plate type 384well, NBS, CORNING #3640.
The test system of assay [1] is Pseudomonas aeruginosa. The assay is described as follows: Antibacterial activity against Pseudomonas aeruginosa PAO397 [PAO1 d(mexAB-oprM) d(mexCD-oprJ) d(mexEF-oprN) d(mexJKL) d(mexXY) d(opmH)] (CO-ADD:GN_211); MIC in CAMBH media using NBS plates, by OD(600). Format: functional. The following applies: ASSAY_TEST Inhibition of Bacterial Growth, detection method Absorption (OD600), MEDIA CAMHB, plate type 384well, CORNING #3640, time 18 hr.

In another assay the test system is Klebsiella pneumoniae. The assay is described as follows: microbe, parasite or virus in culture. The note with it: ATCC 700603, 18 h, ASSAY_TEST Inhibition of Bacterial Growth, detection method Absorption (OD600), MEDIA CAMHB, plate type 384well, NBS, CORNING #3640.
In the next assay the test system is Escherichia coli. Kind of assay: microbe, parasite or virus in culture. The following applies: ATCC 25922, 18 h, ASSAY_TEST Inhibition of Bacterial Growth, detection method Absorption (OD600), MEDIA CAMHB, plate type 384well, NBS, CORNING #3640.
A further assay deals with Acinetobacter baumannii. The assay is described as follows: microbe, parasite or virus in culture. The note with it: ATCC 19606, 18 h, ASSAY_TEST Inhibition of Bacterial Growth, detection method Absorption (OD600), MEDIA CAMHB, plate type 384well, NBS, CORNING #3640.
Assay [2] concerns Pseudomonas aeruginosa. The assay is described as follows: microbe, parasite or virus in culture. The following applies: ATCC 27853, 18 h, ASSAY_TEST Inhibition of Bacterial Growth, detection method Absorption (OD600), MEDIA CAMHB, plate type 384well, NBS, CORNING #3640.
Description: Antibacterial activity against Pseudomonas aeruginosa ATCC 27853 (CO-ADD:GN_042); MIC in CAMBH media using NBS plates, by OD(600)
The next assay deals with Candida albicans. Kind of assay: microbe, parasite or virus in culture. The following applies: ATCC 90028, ASSAY_TEST Inhibition of Fungal Growth, detection method Absorption (OD530), plate type 384well, NBS, CORNING #3640.

17 molecules from ChEMBL document CHEMBL4513161, “CO-ADD screening of MMV (CH) - Pandemic Response Box” (2021) can be followed below.

Structures are written as SMILES. ≈ marks a conversion by molar mass, not a printed value. Where a name gives a salt, the structure may show the parent alone.

Description for Acinetobacter baumannii: Antibacterial activity against Acinetobacter baumannii ATCC 19606 (CO-ADD:GN_034); MIC in CAMBH media using NBS plates, by OD600
Description for Candida albicans: Antifungal activity against Candida albicans ATCC 90028 (CO-ADD:FG_001); MIC in YNB media using NBS plates, by OD630
Description for Cryptococcus neoformans: Antifungal activity against Cryptococcus neoformans H99 ATCC 208821 (CO-ADD:FG_002); MIC in YNB media using NBS plates, by Resazurin OD(600-570)
Description for Escherichia coli: Antibacterial activity against Escherichia coli ATCC 25922 (CO-ADD:GN_001); MIC in CAMBH media using NBS plates, by OD(600)
Description for Klebsiella pneumoniae: Antibacterial activity against Klebsiella pneumoniae MDR ATCC 70063 (CO-ADD:GN_003); MIC in CAMBH media using NBS plates, by OD(600)
Description for Staphylococcus aureus: Antibacterial activity against Staphylococcus aureus MRSA ATCC 43300 (CO-ADD:GP_020); MIC in CAMBH media, using NBS plates, by OD(600)

In the case of `C[C@H](NC(CC(=O)c1ccccc1C(F)(F)F)C(=O)O)c1ccccc1` (stereo partly drawn), the CC50 with HEK293 is > 20 µM. Also, the MIC in the assay on Staphylococcus aureus, against Cryptococcus neoformans, against Pseudomonas aeruginosa [1], in the assay on Klebsiella pneumoniae, against Escherichia coli and against Acinetobacter baumannii was > 20 µM each time. The MIC in the assay with Pseudomonas aeruginosa [2] and with Candida albicans was > 20 µM in each case.
Regarding `CCC(C)NCC(O)Cn1c2ccc(Cl)cc2c2cc(Cl)ccc21` (stereo not drawn), the CC50 in the assay on HEK293 is 6.84 µM. The MIC in the assay with Staphylococcus aureus is 20 µM (≈ 7.31 µg/mL); with Cryptococcus neoformans it was > 20 µM; in the assay on Pseudomonas aeruginosa [1] it was > 20 µM; in the assay on Klebsiella pneumoniae it was > 20 µM; in the assay on Escherichia coli, > 20 µM; in the assay on Acinetobacter baumannii it was > 20 µM. Moreover, the MIC in the assay on Pseudomonas aeruginosa [2] and in the assay on Candida albicans was > 20 µM throughout.
As for `Cc1ccc(NC(=O)c2ccc(CN3CCN(C)CC3)cc2)cc1Nc1nccc(-c2cccnc2)n1` [IMATINIB], the cytotoxic concentration (CC50) with HEK293 is > 20 µM. Besides, the MIC in the assay on Staphylococcus aureus, in the assay with Cryptococcus neoformans, in the assay on Pseudomonas aeruginosa [1], against Klebsiella pneumoniae, in the assay on Escherichia coli and against Acinetobacter baumannii was > 20 µM each time. Further, the MIC against Pseudomonas aeruginosa [2] and in the assay on Candida albicans was > 20 µM in each case.
On to `CSc1ccc2c(c1)C(N1CCN(C)CC1)Cc1ccccc1S2` (stereo not drawn) [METITEPINE], for which the CC50 in the assay on HEK293 is > 20 µM. Moreover, the MIC against Staphylococcus aureus, against Cryptococcus neoformans, in the assay on Pseudomonas aeruginosa [1], in the assay on Klebsiella pneumoniae, in the assay with Escherichia coli and in the assay with Acinetobacter baumannii was > 20 µM each time. Besides, the MIC against Pseudomonas aeruginosa [2] and with Candida albicans was > 20 µM each time.
`CC(=O)N1c2ccccc2NC2=C(C(=O)CC(C)(C)C2)C1c1ccc(OCc2ccccc2)cc1` (stereo not drawn): the CC50 in the assay with HEK293 is > 20 µM. Besides, the MIC in the assay on Staphylococcus aureus, with Cryptococcus neoformans, in the assay on Pseudomonas aeruginosa [1], with Klebsiella pneumoniae, with Escherichia coli and with Acinetobacter baumannii was > 20 µM each time. For the same molecule, the MIC in the assay with Pseudomonas aeruginosa [2] and in the assay with Candida albicans was > 20 µM in each case.
Regarding `CN(Cc1ccc(C(C)(C)C)cc1)Cc1cccc2ccccc12` [BUTENAFINE HYDROCHLORIDE], the cytotoxic concentration (CC50) with HEK293 is > 20 µM. Besides, the MIC is > 20 µM in the assay with Staphylococcus aureus; 5 µM in the assay on Cryptococcus neoformans; > 20 µM against Pseudomonas aeruginosa [1]; > 20 µM with Klebsiella pneumoniae; > 20 µM in the assay with Escherichia coli; > 20 µM in the assay on Acinetobacter baumannii. Also, the MIC with Pseudomonas aeruginosa [2] and in the assay with Candida albicans was > 20 µM in each case.
Take `O=C1C=C(c2ccccc2)S(=O)(=O)c2ccccc21`: the 50% cytotoxic concentration (CC50) in the assay on HEK293 stood at 4.03 µM. Besides, the MIC in the assay with Staphylococcus aureus was > 20 µM; against Cryptococcus neoformans, 5 µM (≈ 1.35 µg/mL); in the assay with Pseudomonas aeruginosa [1] it was > 20 µM; against Klebsiella pneumoniae, > 20 µM; against Escherichia coli it was > 20 µM; against Acinetobacter baumannii it was > 20 µM. Besides, the results for the MIC in the assay with Pseudomonas aeruginosa [2] and with Candida albicans were > 20 µM and 5 µM (≈ 1.35 µg/mL), respectively.
With `CC(C)=CCC/C(C)=C/CNCCNC1C2CC3CC(C2)CC1C3` (stereo not drawn) [SQ109], in the assay with HEK293, the CC50 worked out at 19.5 µM. For the same molecule, the MIC was > 20 µM against Staphylococcus aureus; > 20 µM against Cryptococcus neoformans; 20 µM (≈ 6.61 µg/mL) against Pseudomonas aeruginosa [1]; > 20 µM in the assay on Klebsiella pneumoniae; > 20 µM in the assay on Escherichia coli; > 20 µM in the assay on Acinetobacter baumannii. The MIC in the assay with Pseudomonas aeruginosa [2] and with Candida albicans was > 20 µM throughout.
For the molecule `CC1(C)CC(NC(=O)C(=O)Nc2ccc(Cl)cc2)CC(C)(C)N1`, in the assay on HEK293, the half-maximal cytotoxic concentration (CC50) is > 20 µM. Moreover, the MIC with Staphylococcus aureus, in the assay with Cryptococcus neoformans, against Pseudomonas aeruginosa [1], in the assay with Klebsiella pneumoniae, in the assay with Escherichia coli and against Acinetobacter baumannii was > 20 µM throughout. The MIC against Pseudomonas aeruginosa [2] and in the assay on Candida albicans was > 20 µM each time.
Turning to `O=C(/C=C\n1cnc(-c2cc(C(F)(F)F)cc(C(F)(F)F)c2)n1)NNc1ccccn1` [VERDINEXOR], the CC50 with HEK293 is > 20 µM. In addition, the MIC with Staphylococcus aureus, against Cryptococcus neoformans, in the assay with Pseudomonas aeruginosa [1], in the assay with Klebsiella pneumoniae, against Escherichia coli and with Acinetobacter baumannii was > 20 µM in each case. The MIC against Pseudomonas aeruginosa [2] and against Candida albicans was > 20 µM throughout.
As to `N=C(N)c1ccc(COc2ccc(Cl)cc2)cc1`, the cytotoxic concentration (CC50) in the assay on HEK293 is > 20 µM. The MIC in the assay on Staphylococcus aureus, in the assay with Cryptococcus neoformans, with Pseudomonas aeruginosa [1], against Klebsiella pneumoniae, in the assay on Escherichia coli and with Acinetobacter baumannii was > 20 µM throughout. Moreover, the MIC against Pseudomonas aeruginosa [2] and in the assay with Candida albicans was > 20 µM in each case.
As to `CCCCCCC1c2ccc(O)cc2Oc2cc(O)ccc21`, the cytotoxic concentration (CC50) in the assay with HEK293 is > 20 µM. The MIC in the assay on Staphylococcus aureus, against Cryptococcus neoformans, with Pseudomonas aeruginosa [1], with Klebsiella pneumoniae, in the assay on Escherichia coli and with Acinetobacter baumannii was > 20 µM throughout. The MIC against Pseudomonas aeruginosa [2] and against Candida albicans was > 20 µM each time.
On to `CCc1c(O)nc2ccc(F)cc2c1OCC1CCC1`, for which, in the assay on HEK293, the half-maximal cytotoxic concentration (CC50) is > 20 µM. For the same molecule, the MIC with Staphylococcus aureus, against Cryptococcus neoformans, with Pseudomonas aeruginosa [1], in the assay on Klebsiella pneumoniae, against Escherichia coli and in the assay on Acinetobacter baumannii was > 20 µM throughout. Besides, the MIC against Pseudomonas aeruginosa [2] and in the assay with Candida albicans was > 20 µM in each case.
Regarding `O=C(NC(=O)N1CCCc2ccccc21)c1ccc(Cl)cc1Cl`, the CC50 with HEK293 was > 20 µM. Besides, the MIC in the assay with Staphylococcus aureus, with Cryptococcus neoformans, against Pseudomonas aeruginosa [1], with Klebsiella pneumoniae, against Escherichia coli and in the assay with Acinetobacter baumannii was > 20 µM each time. The MIC with Pseudomonas aeruginosa [2] and with Candida albicans was > 20 µM in each case.
With `Clc1cc(Cl)c2c(c1)CCc1ccccc1C2n1ccnc1` (stereo not drawn), in the assay with HEK293, the CC50 was > 20 µM. Besides, the MIC is 20 µM (≈ 6.58 µg/mL) against Staphylococcus aureus; 20 µM (≈ 6.58 µg/mL) against Cryptococcus neoformans; 20 µM (≈ 6.58 µg/mL) with Pseudomonas aeruginosa [1]; > 20 µM against Klebsiella pneumoniae; > 20 µM in the assay with Escherichia coli; > 20 µM against Acinetobacter baumannii. The figures for the MIC in the assay on Pseudomonas aeruginosa [2] and with Candida albicans were > 20 µM and 5 µM (≈ 1.65 µg/mL), respectively.
Take `Oc1c(C(Nc2ccccn2)c2ccccc2)ccc2cccnc12` (stereo not drawn): in the assay with HEK293, the cytotoxic concentration (CC50) is 19.6 µM. Moreover, the MIC in the assay on Staphylococcus aureus was > 20 µM; against Cryptococcus neoformans, 20 µM (≈ 6.55 µg/mL); against Pseudomonas aeruginosa [1], > 20 µM; against Klebsiella pneumoniae it was > 20 µM; against Escherichia coli, > 20 µM; against Acinetobacter baumannii, > 20 µM. The MIC was > 20 µM in the assay on Pseudomonas aeruginosa [2] and 20 µM (≈ 6.55 µg/mL) against Candida albicans.
On to `CC[C@H](NC(=O)[C@H](C)NC)C(=O)N1C[C@@H](O)C[C@H]1Cc1c(-c2[nH]c3cc(F)ccc3c2C[C@@H]2C[C@H](O)CN2C(=O)[C@H](CC)NC(=O)[C@H](C)NC)[nH]c2cc(F)ccc12` [BIRINAPANT], for which the CC50 with HEK293 is > 20 µM. For the same molecule, the MIC in the assay with Staphylococcus aureus, in the assay on Cryptococcus neoformans, in the assay with Pseudomonas aeruginosa [1], with Klebsiella pneumoniae, against Escherichia coli and in the assay with Acinetobacter baumannii was > 20 µM throughout. Further, the MIC against Pseudomonas aeruginosa [2] and in the assay on Candida albicans was > 20 µM throughout.

The term CC50 denotes the concentration that lowers cell viability or growth by half.
